Data published in US20070208087A1, “Compounds, compositions and methods for the treatment of inflammatory diseases” (priority 2001, published 2007).
Several values for one entry are separate records, joined by “and”; a condition that tells them apart may be missing. Identical values can stand only once. Like-named read-outs stand apart in the source and are kept apart here.

Legend:
Type in all cases: cell-based
[1] = system: microglia; assay: Ranking of NO release inhibition (Example 12); conditions: Microglia, ranking table
Source text: The bis- and tris-dihydroxyaryl compounds were ranked in order of effectiveness for the inhibition of NO release as set out in Table 8.

[2] = system: Microglial cells; assay: Dose response inhibition of NO release from microglia, 0.5-500 μM (Example 9); conditions: for μM NO release / μM NO release (No LPS average subtracted): 3 replicates
Method: This experiment was designed to determine the dose response inhibition of NO release from microglia by bis- and tris-dihydroxyaryl compounds when stimulated with LPS/IFNγ. Earlier experiments have demonostrated that some bis- and tris-dihydroxyaryl compounds are good inhibitors of NO release from microglia. This experiment is designed to determine a dose response for various effective bis- and tris-dihydroxyaryl compounds. Microglial cells were plated into 96 well plates at 1×10^5 cells/ml. At 48 hours, media was exchanged for media containing 10 ng/ml IFNγ and 10 μg/ml LPS and the following compounds 3, 4, 21, 26 and the positive control L-NAME. The doses tested were: 0.5 μM, 1.0 μM, 5.0 μM, 10 μM, 25 μM, 50 μM, 100 μM, 250 μM, and 500 μM. Nitric oxide release was measured after 48 hours using the Griess reaction.

[3] = system: EOC 13.31 microglia cells; assay: Inhibition of NO release from microglia following 24 hours pretreatment (Example 10); conditions: for inhibition at 50 µM: Microglia
Outline: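 Confluent EOC 13.31 cells pretreated 24 hours with 50 μM compound (from 10 mM DMSO stock), then stimulated with 10 μg/ml LPS plus 10 ng/ml IFNγ without media change. After a further 48 hours, NO release was measured by Griess Reaction.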

[4] = system: Microglial cells; assay: Dose response inhibition of NO release from microglia, 0.75-200 μM (Example 8); conditions: Microglia, 48 h
Method: This experiment was designed to determine dose response inhibition of NO release from microglia by bis- and tris-dihydroxyaryl compounds when stimulated with LPS/IFNγ. […] This experiment is designed to determine a dose response for various bis- and tris-dihydroxyaryl compounds. Microglial cells were plated into 96 well plates at 1×10^5 cells/ml. […] The doses tested were: 0.75 μM, 1.56 μM, 3.125 μM, 6.25 μM, 12.5 μM, 25 μM, 50 μM, 100 μM and 200 μM. Nitric oxide release was measured after 48 hours using the Griess reaction.

[5] = dose 0.5 μM, LPS/IFNγ, 48 hours
[6] = dose 100 μM, LPS/IFNγ, 48 hours
[7] = dose 250 μM, LPS/IFNγ, 48 hours
[8] = dose 500 μM, LPS/IFNγ, 48 hours

O=C(NCc1ccc(O)c(O)c1)C(=Cc1ccc(O)c(O)c1)NC(=O)c1ccc(O)c(O)c1 [Compound 21, α-(3,4-dihydroxybenzamido)-3,4-dihydroxycinnamic acid 3,4-dihydroxybenzyl amide]
inhibition at 50 µM [1]: 18% | inhibition at 0.5 µM ([2]; Microglia, 48 h, dose 0.5 μM, NO release, LPS/IFNγ, 48 hours, read-out: Avg % Inhibition): -0.76% | inhibition at 1 µM ([2]; Microglia, 48 h, dose 1 μM, NO release, LPS/IFNγ, 48 hours, read-out: Avg % Inhibition): 1.01% | inhibition at 5 µM ([2]; Microglia, 48 h, dose 5 μM, NO release, LPS/IFNγ): 0.76% | inhibition at 10 µM ([2]; Microglia, 48 h, dose 10 μM, NO release, LPS/IFNγ): -1.27% | inhibition at 25 µM ([2]; Microglia, 48 h, dose 25 μM, NO release, LPS/IFNγ): 4.82% | inhibition at 50 µM ([2]; Microglia, 48 h, dose 50 μM, NO release, LPS/IFNγ): 13.2% | inhibition at 100 µM ([2]; Microglia, 48 h, dose 100 μM, NO release, LPS/IFNγ, 48 hours, read-out: Avg % Inhibition): 35.2% | inhibition at 100 µM ([2]; Microglia, 48 h, dose 100 μM, individual replicates, NO release, LPS/IFNγ, 48 hours, read-out: % inhibition): 29.4% | inhibition at 250 µM ([2]; Microglia, 48 h, dose 250 μM, NO release, LPS/IFNγ, 48 hours, read-out: Avg % Inhibition): 83.5% | inhibition at 250 µM ([2]; Microglia, 48 h, dose 250 μM, individual replicates, NO release, LPS/IFNγ, 48 hours, read-out: % inhibition): 81% | inhibition at 500 µM ([2]; Microglia, 48 h, dose 500 μM, NO release, LPS/IFNγ, 48 hours, read-out: Avg % Inhibition): 80.3% | inhibition at 500 µM ([2]; Microglia, 48 h, dose 500 μM, individual replicates, NO release, LPS/IFNγ, 48 hours, read-out: % inhibition): 78% | μM NO release [2, 5]: 19.722 µM and 20.139 µM and 20.417 µM | μM NO release (No LPS average subtracted) [2, 5]: 18.02 µM and 18.44 µM and 18.72 µM | % inhibition ([2]; dose 0.5 μM, individual replicates, NO release, LPS/IFNγ, 48 hours): 1.27% and −1.01% and −2.54% | μM NO release ([2]; dose 1 μM, LPS/IFNγ, 48 hours): 20.694 µM and 19.444 µM and 19.167 µM | μM NO release (No LPS average subtracted) ([2]; dose 1 μM, LPS/IFNγ, 48 hours): 18.99 µM and 17.74 µM and 17.47 µM | % inhibition ([2]; dose 1 μM, individual replicates, NO release, LPS/IFNγ, 48 hours): −4.06% and 2.79% and 4.31% | μM NO release ([2]; dose 5 μM, LPS/IFNγ, 48 hours): 20.278 µM and 20.000 µM and 19.167 µM | μM NO release (No LPS average subtracted) ([2]; dose 5 μM, LPS/IFNγ, 48 hours): 18.58 µM and 18.30 µM and 17.47 µM | % inhibition ([2]; dose 5 μM, individual replicates, NO release, LPS/IFNγ, 48 hours): −1.78% and −0.25% and 4.31% | μM NO release ([2]; dose 10 μM, LPS/IFNγ, 48 hours): 20.556 μM (2×) and 19.444 μM | μM NO release (No LPS average subtracted) ([2]; dose 10 μM, LPS/IFNγ, 48 hours): 18.86 μM (2×) and 17.74 μM | % inhibition ([2]; dose 10 μM, individual replicates, NO release, LPS/IFNγ, 48 hours): −3.30% (2×) and 2.79% | μM NO release ([2]; dose 25 μM, LPS/IFNγ, 48 hours): 19.722 µM and 18.889 µM and 18.611 µM | μM NO release (No LPS average subtracted) ([2]; dose 25 μM, LPS/IFNγ, 48 hours): 18.02 µM and 17.19 µM and 16.91 µM | % inhibition ([2]; dose 25 μM, individual replicates, NO release, LPS/IFNγ, 48 hours): 1.27% and 5.83% and 7.36% | μM NO release ([2]; dose 50 μM, LPS/IFNγ, 48 hours): 18.472 µM and 16.806 µM and 17.361 µM | μM NO release (No LPS average subtracted) ([2]; dose 50 μM, LPS/IFNγ, 48 hours): 16.77 µM and 15.11 µM and 15.66 µM | % inhibition ([2]; dose 50 μM, individual replicates, NO release, LPS/IFNγ, 48 hours): 8.12% and 17.25% and 14.20% | μM NO release [2, 6]: 14.583 µM and 12.639 µM and 13.333 µM | μM NO release (No LPS average subtracted) [2, 6]: 12.88 µM and 10.94 µM and 11.63 µM | % inhibition ([2]; dose 100 μM, individual replicates, NO release, LPS/IFNγ, 48 hours): 40.07% and 36.27% | μM NO release [2, 7]: 5.163 µM and 3.940 µM and 5.027 µM | μM NO release (No LPS average subtracted) [2, 7]: 3.46 µM and 2.24 µM and 3.33 µM | % inhibition ([2]; dose 250 μM, individual replicates, NO release, LPS/IFNγ, 48 hours): 87.73% and 81.77% | μM NO release [2, 8]: 5.707 µM and 4.348 µM and 5.842 µM | μM NO release (No LPS average subtracted) [2, 8]: 4.01 µM and 2.65 µM and 4.14 µM | % inhibition ([2]; dose 500 μM, individual replicates, NO release, LPS/IFNγ, 48 hours): 85.49% and 77.31% | inhibition of NO release, in words ([2]; dose response 0.5-500 μM): most effective at the 250 μM dose | % inhibition ([3]; 50 uM pretreatment 24 hours, then LPS/IFNγ 48 hours, single replicates): 82.29% and 84.17% | inhibition at 50 µM ([3]; 50 uM pretreatment 24 hours, then LPS/IFNγ 48 hours, read-out: Avg % Inhibition): 83.9% | inhibition at 50 µM ([3]; 50 uM pretreatment 24 hours, then LPS/IFNγ 48 hours, single replicates, read-out: % inhibition): 85.2% | inhibition at 50 µM ([3]; 50 μM pretreatment, read-out: inhibition of NO release following pretreatment): > 75% | inhibition at 0.75 µM ([4]; dose 0.75 μM): -15.5% | inhibition at 1.56 µM ([4]; dose 1.56 μM): -6.58%
